Assays:
[1] = test system: Pseudomonas aeruginosa ATCC 27853; assay: Colistin broth microdilution MIC with potentiator compounds (Example 1); type: cell-based; conditions: P. aeruginosa ATCC 27853; MIC in the presence of 1.0% DMSO / MIC in the presence of 0.1 mM potentiator compound and 1.0% DMSO; positive = increased, negative = decreased susceptibility, 1 = no effect
S. aureus SA0004 = assay: Broth microdilution MIC of compound of formula I alone (Example 5); type: cell-based; conditions: Staphylococcus aureus, Clinical strain, (MRSA, and resistant to ciprofloxacin and cloxacillin), read-out: Compound of formula I MIC in the presence of 1.0% DMSO
Method: (§1) The antimicrobial effect of the compound of formula I of the invention was tested in front of specific Gram-positive bacterium, Staphylococcus aureus, an agent usually involved in hospital-acquired infections. For this experiment the S. aureus reference and clinical isolates shown in Table 8 were used, including Methicillin-resistant S. aureus (MRSA): TABLE 8
(§2) Antimicrobial susceptibility testing of these isolates was performed using the broth microdilution (BMD) method, according to CLSI guidelines (Example 1).
(§3) Selected compound of formula I was first dissolved in 100% of sterile-filtered dimethyl sulfoxide (DMSO, Sigma, D2438) to 20 mM. 100 µL of bacterial suspension (final OD550nm=0.01) in MHB were added to the compound dilutions in each well (concentration range from 0.2 mM to 3.125 µM), and the final suspension was mixed and incubated without shaking at 37° C for 24 h before developing with 30 µL of a 0.01% aqueous solution of resazurin. For the experiment all bacteria were first grown overnight in CAMHB using CLSI recommended incubation conditions.
(§4) The compound MIC, expressed in mM, was defined as the lowest concentration of compound at which no visible growth was obtained.

S. aureus SA0001 = assay: as above; type: cell-based; conditions: Staphylococcus aureus, Clinical strain, (resistant to penicillin), read-out: Compound of formula I MIC in the presence of 1.0% DMSO
Method: as §1, §2, §3, §4

S. aureus Seatle 1945 = assay: as above; type: cell-based; conditions: Staphylococcus aureus, ATCC25923, Reference strain, ATCC 25923, read-out: Compound of formula I MIC in the presence of 1.0% DMSO
Method: as §1, §2, §3, §4

S. aureus SA0002 = assay: as above; type: cell-based; conditions: Staphylococcus aureus, Clinical strain, (resistant to penicillin), read-out: Compound of formula I MIC in the presence of 1.0% DMSO
Method: as §1, §2, §3, §4

S. aureus F-182 = assay: as above; type: cell-based; conditions: Staphylococcus aureus, ATCC43300, Reference strain, ATCC 43300 (CLSI standard), read-out: Compound of formula I MIC in the presence of 1.0% DMSO
Method: as §1, §2, §3, §4

S. aureus RN6911 = assay: as above; type: cell-based; conditions: Staphylococcus aureus, RN6911, read-out: Compound of formula I MIC in the presence of 1.0% DMSO
Method: as §1, §2, §3, §4

S. aureus Newman = assay: as above; type: cell-based; conditions: Staphylococcus aureus, NBRC102137 / NEWMAN, Reference strain, NBRC 102137, read-out: Compound of formula I MIC in the presence of 1.0% DMSO
Method: as §1, §2, §3, §4

S. aureus RN6390 = assay: as above; type: cell-based; conditions: Staphylococcus aureus, RN6390, read-out: Compound of formula I MIC in the presence of 1.0% DMSO
Method: as §1, §2, §3, §4

S. aureus RN4220 = assay: as above; type: cell-based; conditions: Staphylococcus aureus, RN4220, read-out: Compound of formula I MIC in the presence of 1.0% DMSO
Method: as §1, §2, §3, §4

S. aureus SA0003 = assay: as above; type: cell-based; conditions: Staphylococcus aureus, Clinical strain, (resistant to penicillin), read-out: Compound of formula I MIC in the presence of 1.0% DMSO
Method: as §1, §2, §3, §4

S. aureus USA 300 = assay: as above; type: cell-based; conditions: Staphylococcus aureus, ATCC BAA-1556 / MRSA / USA300, Reference strain, read-out: Compound of formula I MIC in the presence of 1.0% DMSO
Method: as §1, §2, §3, §4

S. aureus V8 = assay: as above; type: cell-based; conditions: Staphylococcus aureus, ATCC49775, Reference strain, ATCC 49775, read-out: Compound of formula I MIC in the presence of 1.0% DMSO
Method: as §1, §2, §3, §4

[2] = test system: Stenotrophomonas maltophilia ATCC 13637; assay: Colistin broth microdilution MIC with potentiator compounds (Example 1); type: cell-based; conditions: S. maltophilia ATCC 13637; MIC in the presence of 1.0% DMSO / MIC in the presence of 0.1 mM potentiator compound and 1.0% DMSO; positive = increased, negative = decreased susceptibility, 1 = no effect
[3] = test system: Enterobacter aerogenes ATCC 13048; assay: as above; type: cell-based; conditions: E. aerogenes ATCC 13048; MIC in the presence of 1.0% DMSO / MIC in the presence of 0.1 mM potentiator compound and 1.0% DMSO; positive = increased, negative = decreased susceptibility, 1 = no effect
[4] = test system: Escherichia coli ATCC 25922; assay: as above; type: cell-based; conditions: E. coli ATCC 25922; MIC in the presence of 1.0% DMSO / MIC in the presence of 0.1 mM potentiator compound and 1.0% DMSO; positive = increased, negative = decreased susceptibility, 1 = no effect
[5] = test system: Salmonella enterica subsp. enterica ATCC 14028; assay: as above; type: cell-based; conditions: S. enterica ATCC 14028; MIC in the presence of 1.0% DMSO / MIC in the presence of 0.1 mM potentiator compound and 1.0% DMSO; positive = increased, negative = decreased susceptibility, 1 = no effect
A. baumannii ATCC 15308 = assay: Broth microdilution MIC of other antibiotics with potentiator compounds (Example 2); type: cell-based, Acinetobacter baumannii
Method: Following the procedure of Example 1, ciprofloxacin, amikacin, levofloxacin, tigecycline, imipenem and the combination trimethoprim/sulfamethoxasole (1:19) were tested. All were purchased from Sigma-Aldrich Co.
Minimal inhibitory concentration (MIC) of the antibiotic or the test combinations were determined by the broth microdilution method.
Antibiotic stock solutions were prepared according to CLSI recommendations and sterilizing by passage through 0.20 µm filters.
Antimicrobial susceptibility testing of these isolates was performed using the broth microdilution (BMD) method, according to CLSI guidelines.
The fold increase in bacterial susceptibility to antibiotics when combined with the potentiator compound (expressed as MIC in the presence of 1.0% DMSO / MIC in the presence of 0.1 mM of each potentiator compound and 1.0% DMSO) are shown in Table 4: […]

[6] = MIC in 1.0% DMSO / MIC with 0.1 mM potentiator compound and 1.0% DMSO

CN(C)CCNC(=O)c1cccc(CNC(=O)Nc2ccc3c(c2)Cc2ccccc2-3)c1 [I, N-[2-(dimethylamino)ethyl]-3-[(9H-fluoren-2-ylcarbamoylamino)methyl]benzamide]
4 fold: Fold increase in bacterial susceptibility to Levofloxacin (A. baumannii ATCC 15308; [6]) | Fold increase in bacterial susceptibility to TMP/SMX (A. baumannii ATCC 15308; Trimethoprim:sulfamethoxazole 1:19, MIC in 1.0% DMSO / MIC with 0.1 mM potentiator compound and 1.0% DMSO)
2 fold: Fold increase in bacterial susceptibility to Imipenem (A. baumannii ATCC 15308; [6]) | Fold increase in bacterial susceptibility to Tigecycline (A. baumannii ATCC 15308; [6])
100 µM: MIC (S. aureus SA0002) | MIC (S. aureus SA0003)
+2 fold: Fold increase in bacterial susceptibility to colistin [1] | Fold increase in bacterial susceptibility to colistin [3] | Fold increase in bacterial susceptibility to colistin [4] | Fold increase in bacterial susceptibility to colistin [5]
200 µM: MIC (S. aureus SA0004) | MIC (S. aureus SA0001) | MIC (S. aureus Seatle 1945) | MIC (S. aureus F-182) | MIC (S. aureus RN6911) | MIC (S. aureus Newman) | MIC (S. aureus RN6390) | MIC (S. aureus RN4220) | MIC (S. aureus USA 300) | MIC (S. aureus V8)
+64 fold: Fold increase in bacterial susceptibility to colistin [2]
